This passage reports IC50 results from PMC3334291 (Biochemistry, 2012).

Assay [1] has as its target MelBSt (melibiose permease of Salmonella typhimurium) (Salmonella enterica, UniProt P30878, L5M). The conditions noted are these: read-out: WT; 20 mM NaCl, 10 μM D2G, 100 mM KPi pH 7.5; sugar site, competitive.
Assay [2] addresses MelBSt (melibiose permease of Salmonella typhimurium) (Salmonella enterica, UniProt P30878, L5M/G117A). The conditions noted are these: read-out: G117A; 20 mM NaCl, 10 μM D2G, 100 mM KPi pH 7.5; sugar site, competitive.

Structures are written as SMILES.

In the case of `OC[C@H]1O[C@H](OC[C@H]2OC(O)[C@H](O)[C@@H](O)[C@@H]2O)[C@H](O)[C@@H](O)[C@H]1O` (some centres unmarked) [melibiose], the IC50 was determined as 3.8 mM in assay [1] and 8.1 mM in assay [2].
